# Test results reported in patent US12258328B2, “6-membered heteroaryl-containing aminopyridine compounds as EGFR inhibitors” (YUHAN CORPORATION, priority 2021, dated 2025).
# Like-named read-outs stand apart in the source and are kept apart here.
# How the values were obtained:
# [1] = biological target: EGFR del19/T790M/C797S (Homo sapiens, UniProt P00533, C797S/DEL746-750/T790M); experiment: Biochemical EGFR kinase assay (Lance Ultra TR-FRET), triple mutant del19/T790M/C797S
# Method in brief: (§1)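 Kinase activity is measured by TR-FRET phosphopeptide detection. Compounds span 0.003 μM to 10 μM; the 1 h reaction at room temperature is quenched with EDTA, then labelled antibody (2 nM) is incubated 60 min before reading.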
# [2] = biological target: EGFR L858R/C797S (Homo sapiens, UniProt P00533, C797S/L858R); experiment: Biochemical EGFR kinase assay (Lance Ultra TR-FRET), double mutant L858R/C797S
# Sequence of EGFR L858R/C797S (P00533 25-1210 C797S/L858R): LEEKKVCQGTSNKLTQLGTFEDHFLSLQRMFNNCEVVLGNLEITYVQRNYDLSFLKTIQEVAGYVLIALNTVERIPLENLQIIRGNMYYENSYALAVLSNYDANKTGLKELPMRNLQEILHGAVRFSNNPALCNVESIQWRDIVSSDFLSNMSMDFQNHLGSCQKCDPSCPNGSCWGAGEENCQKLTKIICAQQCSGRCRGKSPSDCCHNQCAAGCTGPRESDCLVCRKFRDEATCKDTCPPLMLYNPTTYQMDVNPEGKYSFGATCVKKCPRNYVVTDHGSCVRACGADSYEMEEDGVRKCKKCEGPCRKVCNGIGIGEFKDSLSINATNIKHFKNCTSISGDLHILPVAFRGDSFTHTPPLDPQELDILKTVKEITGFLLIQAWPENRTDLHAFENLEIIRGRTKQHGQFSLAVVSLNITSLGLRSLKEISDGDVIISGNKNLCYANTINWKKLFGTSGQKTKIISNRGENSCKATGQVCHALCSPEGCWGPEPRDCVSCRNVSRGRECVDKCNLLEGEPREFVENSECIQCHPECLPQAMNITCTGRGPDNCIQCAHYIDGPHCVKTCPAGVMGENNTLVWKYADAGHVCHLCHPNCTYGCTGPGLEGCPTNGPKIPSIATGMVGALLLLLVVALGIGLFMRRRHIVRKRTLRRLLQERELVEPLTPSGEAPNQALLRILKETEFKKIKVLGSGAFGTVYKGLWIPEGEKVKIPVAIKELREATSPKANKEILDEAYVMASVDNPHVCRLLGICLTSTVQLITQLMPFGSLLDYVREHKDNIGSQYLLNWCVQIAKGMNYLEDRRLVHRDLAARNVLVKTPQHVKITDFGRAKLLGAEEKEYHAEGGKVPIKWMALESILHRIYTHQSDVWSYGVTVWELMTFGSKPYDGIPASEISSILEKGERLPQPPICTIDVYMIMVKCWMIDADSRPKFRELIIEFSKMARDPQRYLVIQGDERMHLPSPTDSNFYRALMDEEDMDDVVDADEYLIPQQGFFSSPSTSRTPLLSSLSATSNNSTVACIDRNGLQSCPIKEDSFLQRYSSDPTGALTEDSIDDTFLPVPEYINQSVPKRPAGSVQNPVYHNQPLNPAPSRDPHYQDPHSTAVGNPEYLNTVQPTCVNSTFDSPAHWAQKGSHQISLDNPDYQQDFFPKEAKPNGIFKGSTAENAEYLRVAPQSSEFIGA
# Method in brief: as §1
# [3] = biological target: EGFR L858R/T790M/C797S (Homo sapiens, UniProt P00533, C797S/L858R/T790M); experiment: Biochemical EGFR kinase assay (Lance Ultra TR-FRET), triple mutant L858R/T790M/C797S
# Sequence of EGFR L858R/T790M/C797S (P00533 25-1210 T790M/C797S/L858R): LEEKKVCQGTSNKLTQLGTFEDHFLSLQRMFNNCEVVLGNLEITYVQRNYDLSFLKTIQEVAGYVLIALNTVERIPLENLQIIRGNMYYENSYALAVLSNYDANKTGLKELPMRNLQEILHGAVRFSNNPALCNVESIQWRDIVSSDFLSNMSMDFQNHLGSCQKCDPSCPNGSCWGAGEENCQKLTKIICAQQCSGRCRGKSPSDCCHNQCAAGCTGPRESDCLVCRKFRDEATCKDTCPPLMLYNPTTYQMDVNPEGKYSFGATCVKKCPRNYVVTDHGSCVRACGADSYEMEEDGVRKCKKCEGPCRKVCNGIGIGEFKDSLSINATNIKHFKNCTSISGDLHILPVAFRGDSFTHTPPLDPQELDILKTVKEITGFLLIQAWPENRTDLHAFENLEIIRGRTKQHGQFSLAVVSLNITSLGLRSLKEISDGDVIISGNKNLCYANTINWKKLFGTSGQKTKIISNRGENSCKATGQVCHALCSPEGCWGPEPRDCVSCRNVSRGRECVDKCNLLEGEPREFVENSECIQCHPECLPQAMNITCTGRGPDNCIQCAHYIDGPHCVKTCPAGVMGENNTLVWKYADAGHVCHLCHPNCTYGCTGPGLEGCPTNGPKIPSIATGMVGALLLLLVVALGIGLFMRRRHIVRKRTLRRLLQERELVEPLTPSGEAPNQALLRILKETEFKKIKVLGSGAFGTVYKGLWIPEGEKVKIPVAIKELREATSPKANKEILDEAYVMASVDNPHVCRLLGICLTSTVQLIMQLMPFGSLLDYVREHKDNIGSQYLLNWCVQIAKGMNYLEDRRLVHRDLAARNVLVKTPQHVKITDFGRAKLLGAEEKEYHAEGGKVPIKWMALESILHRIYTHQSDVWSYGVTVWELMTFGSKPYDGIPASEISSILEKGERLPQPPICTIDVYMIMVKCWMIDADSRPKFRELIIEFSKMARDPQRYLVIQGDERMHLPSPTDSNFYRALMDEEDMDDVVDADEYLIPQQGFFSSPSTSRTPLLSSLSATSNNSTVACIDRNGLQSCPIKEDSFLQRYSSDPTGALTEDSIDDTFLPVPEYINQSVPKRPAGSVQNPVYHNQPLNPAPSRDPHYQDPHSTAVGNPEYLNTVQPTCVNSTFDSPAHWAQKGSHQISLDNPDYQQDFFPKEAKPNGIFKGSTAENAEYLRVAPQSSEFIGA
# Method in brief: as §1
# [4] = biological target: EGFR wildtype (Homo sapiens, UniProt P00533); experiment: Biochemical EGFR kinase assay (Lance Ultra TR-FRET), wildtype
# Method in brief: as §1
# [5] = biological target: EGFR del19/C797S (Homo sapiens, UniProt P00533, C797S/DEL746-750); experiment: Biochemical EGFR kinase assay (Lance Ultra TR-FRET), double mutant del19/C797S
# Sequence of EGFR del19/C797S (P00533 with tags, fused parts or gaps DEL746-750/C797S): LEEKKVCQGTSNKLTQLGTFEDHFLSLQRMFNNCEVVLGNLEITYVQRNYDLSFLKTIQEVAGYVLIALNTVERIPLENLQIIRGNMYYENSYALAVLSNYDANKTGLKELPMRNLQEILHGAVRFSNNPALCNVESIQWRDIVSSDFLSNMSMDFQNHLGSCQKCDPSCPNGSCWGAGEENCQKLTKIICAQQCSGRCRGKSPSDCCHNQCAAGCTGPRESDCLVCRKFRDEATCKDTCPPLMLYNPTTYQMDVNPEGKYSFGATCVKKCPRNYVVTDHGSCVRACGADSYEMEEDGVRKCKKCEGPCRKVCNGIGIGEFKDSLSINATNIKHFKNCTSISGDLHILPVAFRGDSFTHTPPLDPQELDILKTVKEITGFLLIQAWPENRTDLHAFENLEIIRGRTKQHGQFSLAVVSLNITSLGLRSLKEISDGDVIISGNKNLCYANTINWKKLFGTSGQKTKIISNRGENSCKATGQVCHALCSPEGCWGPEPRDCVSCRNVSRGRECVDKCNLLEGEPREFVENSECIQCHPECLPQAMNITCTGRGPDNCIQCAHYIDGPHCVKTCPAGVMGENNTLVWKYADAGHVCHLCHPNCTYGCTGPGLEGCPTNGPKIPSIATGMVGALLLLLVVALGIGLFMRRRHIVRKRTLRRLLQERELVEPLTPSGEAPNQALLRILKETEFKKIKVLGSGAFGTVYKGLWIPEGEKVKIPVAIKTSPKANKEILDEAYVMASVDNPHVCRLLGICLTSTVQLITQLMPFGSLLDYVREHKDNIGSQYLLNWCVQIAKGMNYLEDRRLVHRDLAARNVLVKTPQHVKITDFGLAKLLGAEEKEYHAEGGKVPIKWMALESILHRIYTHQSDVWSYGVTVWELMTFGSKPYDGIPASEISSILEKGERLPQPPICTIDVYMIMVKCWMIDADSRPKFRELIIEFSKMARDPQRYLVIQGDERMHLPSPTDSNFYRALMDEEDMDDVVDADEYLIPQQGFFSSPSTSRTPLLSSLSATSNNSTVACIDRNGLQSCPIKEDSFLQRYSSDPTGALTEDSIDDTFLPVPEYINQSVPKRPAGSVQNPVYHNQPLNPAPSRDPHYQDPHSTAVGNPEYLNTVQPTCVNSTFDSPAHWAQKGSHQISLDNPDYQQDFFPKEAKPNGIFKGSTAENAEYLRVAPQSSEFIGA
# Method in brief: as §1
# [6] = ATP at Km, read-out: IC50 del19/T790M/C797S, Km ATP
# [7] = IC50 del19/T790M/C797S, 100 μM ATP
# [8] = ATP at Km, read-out: IC50 L858R/C797S, Km ATP
# [9] = ATP at Km, read-out: IC50 L858R/T790M/C797S, Km ATP
# [10] = IC50 L858R/T790M/C797S, 100 μM ATP
# [11] = ATP at Km, read-out: IC50 WT, Km ATP
# [12] = ATP at Km, read-out: IC50 del19/C797S, Km ATP
# Sequence of EGFR del19/T790M/C797S (P00533 with tags, fused parts or gaps DEL746-750/T790M/C797S): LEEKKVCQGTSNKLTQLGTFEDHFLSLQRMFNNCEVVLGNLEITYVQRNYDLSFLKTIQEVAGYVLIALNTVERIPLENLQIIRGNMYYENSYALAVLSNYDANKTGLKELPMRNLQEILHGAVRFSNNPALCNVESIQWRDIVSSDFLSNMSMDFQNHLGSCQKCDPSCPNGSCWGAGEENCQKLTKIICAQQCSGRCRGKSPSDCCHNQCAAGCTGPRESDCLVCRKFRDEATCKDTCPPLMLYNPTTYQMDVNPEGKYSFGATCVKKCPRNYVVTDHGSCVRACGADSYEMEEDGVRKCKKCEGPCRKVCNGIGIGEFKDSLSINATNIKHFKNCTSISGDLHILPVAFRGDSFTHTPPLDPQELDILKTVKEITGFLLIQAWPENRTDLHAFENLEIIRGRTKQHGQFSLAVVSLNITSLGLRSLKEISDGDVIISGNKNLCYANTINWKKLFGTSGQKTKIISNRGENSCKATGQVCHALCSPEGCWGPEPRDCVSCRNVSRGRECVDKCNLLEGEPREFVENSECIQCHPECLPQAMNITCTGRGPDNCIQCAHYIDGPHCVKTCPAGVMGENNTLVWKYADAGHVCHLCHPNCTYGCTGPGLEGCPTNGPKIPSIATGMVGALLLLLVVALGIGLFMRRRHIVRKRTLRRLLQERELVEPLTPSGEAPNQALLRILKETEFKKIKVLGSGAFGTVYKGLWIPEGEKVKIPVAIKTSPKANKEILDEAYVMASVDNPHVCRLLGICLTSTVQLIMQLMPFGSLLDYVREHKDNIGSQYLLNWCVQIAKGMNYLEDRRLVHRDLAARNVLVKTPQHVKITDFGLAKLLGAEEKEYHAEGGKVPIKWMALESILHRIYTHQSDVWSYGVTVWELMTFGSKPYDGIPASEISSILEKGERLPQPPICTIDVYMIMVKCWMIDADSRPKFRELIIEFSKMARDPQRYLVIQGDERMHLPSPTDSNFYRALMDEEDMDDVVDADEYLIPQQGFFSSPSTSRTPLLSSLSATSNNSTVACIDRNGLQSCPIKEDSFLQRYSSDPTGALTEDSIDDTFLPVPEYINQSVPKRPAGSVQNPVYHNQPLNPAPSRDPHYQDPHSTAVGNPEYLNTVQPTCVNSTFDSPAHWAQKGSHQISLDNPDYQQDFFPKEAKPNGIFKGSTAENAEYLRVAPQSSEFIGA
SMILES,"IC50 [1, 6]","IC50 [1, 7]","IC50 [2, 8]","IC50 ([2]; IC50 L858R/C797S, 100 μM ATP)","IC50 [3, 9]","IC50 [3, 10]","IC50 [4, 11]","IC50 ([4]; IC50 WT, 100 μM ATP)","IC50 [5, 12]","IC50 ([5]; IC50 del19/C797S, 100 μM ATP)"
"CC(C)(O)[C@H]1CC[C@@H](Nc2cc(Nc3ccnc(-c4cnn(S(=O)(=O)C5CC5)c4)n3)ncc2-c2ccc(S(C)(=O)=O)cn2)CC1 [Example 160, 2-((1s,4s)-4-((6′-((2-(1-(Cyclopropylsulfonyl)-1H-pyrazol-4-yl)pyrimidin-4-yl)amino)-5-(methylsulfonyl)-[2,3′-bipyridin]-4′-yl)amino)cyclohexyl)propan-2-ol]",0.5 nM,0.8 nM,3 nM,15 nM,0.2 nM,0.7 nM,5.1 nM,> 10000 nM,0.5 nM,1.3 nM
"O=S(=O)(C1CC1)n1cc(-c2nccc(Nc3cc(NCC4(CO)COC4)c(-c4cccc(F)n4)cn3)n2)cn1 [Example 161, (3-(((6′-((2-(1-(Cyclopropylsulfonyl)-1H-pyrazol-4-yl)pyrimidin-4-yl)amino)-6-fluoro-[2,3′-bipyridin]-4′-yl)amino)methyl)oxetan-3-yl)methanol]",0.1 nM,0.1 nM,1.9 nM,12.4 nM,0.1 nM,0.5 nM,11.6 nM,> 10000 nM,0.9 nM,1.2 nM
"O=S(=O)(C1CC1)n1cc(-c2nccc(Nc3cc(NC4CCC(F)(CO)CC4)c(-c4cccc(F)n4)cn3)n2)cn1 (centres unmarked) [Example 162, (4-((6′-((2-(1-(Cyclopropylsulfonyl)-1H-pyrazol-4-yl)pyrimidin-4-yl)amino)-6-fluoro-[2,3′-bipyridin]-4′-yl)amino)-1-fluorocyclohexyl)methanol]",0.5 nM,1.3 nM,19.9 nM,1530 nM,0.4 nM,3 nM,2970 nM,> 10000 nM,13.1 nM,21 nM
"CC(C)(O)[C@H]1CC[C@@H](Nc2cc(Nc3ccnc(-c4cnn(S(=O)(=O)C5CC5)c4)n3)ncc2-c2cccc(F)n2)CC1 [Example 163, 2-((1s,4s)-4-((6′-((2-(1-(Cyclopropylsulfonyl)-1H-pyrazol-4-yl)pyrimidin-4-yl)amino)-6-fluoro-[2,3′-bipyridin]-4′-yl)amino)cyclohexyl)propan-2-ol]",,2.6 nM,13 nM,49.4 nM,0.7 nM,2.3 nM,18.7 nM,> 10000 nM,2.6 nM,3.1 nM
"CN(C)S(=O)(=O)c1ccc(-c2cnc(Nc3ccnc(-c4cnn(S(=O)(=O)C5CC5)c4)n3)cc2N[C@H]2CC[C@@H](C(C)(C)O)CC2)nc1 [Example 165, 6′-((2-(1-(Cyclopropylsulfonyl)-1H-pyrazol-4-yl)pyrimidin-4-yl)amino)-4′-(((1s,4s)-4-(2-hydroxypropan-2-yl)cyclohexyl)amino)-N,N-dimethyl-[2,3′-bipyridine]-5-sulfonamide]",3.5 nM,1.2 nM,1.6 nM,18.5 nM,1 nM,1.7 nM,,> 10000 nM,1.8 nM,7.6 nM
"CN(C)S(=O)(=O)c1ccc(-c2cnc(Nc3ccnc(-c4cnn(S(=O)(=O)C5CC5)c4)n3)cc2N[C@H]2CC[C@@H](CO)CC2)nc1 [Example 166, 6′-((2-(1-(Cyclopropylsulfonyl)-1H-pyrazol-4-yl)pyrimidin-4-yl)amino)-4′-(((1s,4s)-4-(hydroxymethyl)cyclohexyl)amino)-N,N-dimethyl-[2,3′-bipyridine]-5-sulfonamide]",1.9 nM,5.1 nM,1.1 nM,2.4 nM,,0.6 nM,2 nM,> 10000 nM,1.2 nM,2.4 nM
"CN(C)c1ccnc(-c2cnc(Nc3ccnc(-c4cnn(S(=O)(=O)C5CC5)c4)n3)cc2N[C@H]2CC[C@@](C)(O)CC2)c1 [Example 167, (1s,4s)-4-((6′-((2-(1-(Cyclopropylsulfonyl)-1H-pyrazol-4-yl)pyrimidin-4-yl)amino)-4-(dimethylamino)-[2,3′-bipyridin]-4′-yl)amino)-1-methylcyclohexan-1-ol]",,2.7 nM,,52.2 nM,,3.5 nM,,> 10000 nM,,45.8 nM
"CC(C)(O)c1ccc(-c2cnc(Nc3ccnc(-c4cnn(S(=O)(=O)C5CC5)c4)n3)cc2N[C@H]2CC[C@@](C)(O)CC2)nc1 [Example 168, (1s,4s)-4-((6′-((2-(1-(Cyclopropylsulfonyl)-1H-pyrazol-4-yl)pyrimidin-4-yl)amino)-5-(2-hydroxypropan-2-yl)-[2,3′-bipyridin]-4′-yl)amino)-1-methylcyclohexan-1-ol]",0.4 nM,0.3 nM,0.2 nM,0.5 nM,0.2 nM,0.2 nM,,92.2 nM,0.2 nM,0.4 nM
"CC(C)(O)c1ccc(-c2cnc(Nc3ccnc(-c4cnn(S(=O)(=O)C5CC5)c4)n3)cc2N[C@H]2CC[C@@H](C(C)(C)O)CC2)nc1 [Example 169, 2-(6′-((2-(1-(Cyclopropylsulfonyl)-1H-pyrazol-4-yl)pyrimidin-4-yl)amino)-4′-(((1s,4s)-4-(2-hydroxypropan-2-yl)cyclohexyl)amino)-[2,3′-bipyridin]-5-yl)propan-2-ol]",1.3 nM,0.9 nM,0.4 nM,,,0.7 nM,,416 nM,0.5 nM,1.3 nM
"CC(C)(O)c1ccc(-c2cnc(Nc3ccnc(-c4cnn(S(=O)(=O)C5CC5)c4)n3)cc2N[C@H]2CC[C@@H](CO)CC2)nc1 [Example 170, 2-(6′-((2-(1-(Cyclopropylsulfonyl)-1H-pyrazol-4-yl)pyrimidin-4-yl)amino)-4′-(((1s,4s)-4-(hydroxymethyl)cyclohexyl)amino)-[2,3′-bipyridin]-5-yl)propan-2-ol]",0.8 nM,1.3 nM,0.6 nM,2.1 nM,0.2 nM,0.9 nM,,141 nM,0.7 nM,2 nM
"CN(C)C[C@H]1CC[C@@H](Nc2cc(Nc3ccnc(-c4cnn(S(=O)(=O)C5CC5)c4)n3)ncc2-c2ccc(C(C)(C)O)cn2)CC1 [Example 171, 2-(6′-((2-(1-(Cyclopropylsulfonyl)-1H-pyrazol-4-yl)pyrimidin-4-yl)amino)-4′-(((1s,4s)-4-((dimethylamino)methyl)cyclohexyl)amino)-[2,3′-bipyridin]-5-yl)propan-2-ol]",0.3 nM,0.5 nM,0.2 nM,0.3 nM,0.1 nM,0.2 nM,0.2 nM,67.9 nM,0.1 nM,0.3 nM
"CN(C)C(=O)[C@H]1CC[C@@H](Nc2cc(Nc3ccnc(-c4cnn(S(=O)(=O)C5CC5)c4)n3)ncc2-c2ccc(C(C)(C)O)cn2)CC1 [Example 172, (1s,4s)-4-((6′-((2-(1-(Cyclopropylsulfonyl)-1H-pyrazol-4-yl)pyrimidin-4-yl)amino)-5-(2-hydroxypropan-2-yl)-[2,3′-bipyridin]-4′-yl)amino)-N,N-dimethylcyclohexane-1-carboxamide]",0.7 nM,0.6 nM,1.3 nM,4.8 nM,0.2 nM,0.2 nM,0.4 nM,93.2 nM,0.3 nM,0.8 nM
